According to patent publication US20230158042A1, “COMBINATION CANCER THERAPY WITH PENTAAZA MACROCYCLIC RING COMPLEX AND HORMONE THERAPY AGENT” (Galera Labs, LLC, priority 2020, published 2023):

Tests used:
[1] = tested on: Sirt3^-/--MT-SIRT3^DN allografts; assay: Sirt3-/--MT-SIRT3^DN mammary allograft tumor growth (bioluminescence); format: in vivo; conditions: GC4419 by IP every other day for five weeks; compared to control mice
Experimental: (§1) FIGS. 29a-29b are plots showing that the growth of murine mammary allograft tumors is inhibited by exposure to the MnSOD mimic GC4419 much more in cells without expression of deacetylation competent SIRT3. […] Mice were subsequently injected with luciferin potassium (120 mg/kg) every week and signal intensity will be quantified. Error bars represent one SD from the mean.
(§2) These cell lines were subsequently infected with and selected to express either a SIRT3 wild-type (Sirt3^-/--MT-SIRT3^WT) or deacetylation activity null (Sirt3^-/--MT-SIRT3^DN) gene and a lenti-luciferase to assess tumor growth by bioluminescence. Allograft tumor mice were split into four groups: (1) control, untreated Sirt3^-/--MT-SIRT3^DN; (2) GC4419 treated Sirt3^-/--MT-SIRT3^DN; (3) control, untreated Sirt3^-/--MT-SIRT3^WT; and (4) GC4419 treated Sirt3^-/--MT-SIRT3^WT. […] Accordingly, it was shown that the growth of murine mammary allograft tumors is inhibited by pharmacologically mimicking the activity of deacetylated lysine 68 MnSOD with a manganese pentaazamacrocyclic dismutase mimetic much more in tumors without deacetylation competent SIRT3. Further, this supports that selection of tumors displaying an AcK68 signature could increase response to treatment with a MnPAM dismutase mimetic (or other methods) alone or in combination with other therapies.

MCF7-HTR cells = assay: Clonogenic cell survival, hydroxy-Tam-resistant MCF7 cells with GC4419; format: cell-based, human; conditions: 5 µM GC4419 for 5 days; 1 µM hydroxy-Tam
Experimental: Clonogenic cell survival assay. For the clonogenic survival analysis, exponentially growing cells were replated using appropriate dilutions, and clonogenic survival was evaluated after 14 days in regular growth medium. Cells were stained with crystal violet, and colonies of >50 cells were counted and utilized to calculate clonogenic survival^46.
To test parameters indicative of oxidative stress, a clonogenic assay with hydroxy-Tam and MnPAM dismutase mimetic treatments was performed. Cells were plated at a density of 50,000 cells per 60-mm dish and treated with 1 µM hydroxy-Tam (Sigma) and 5 µM GC4419 (Galera Therapeutics) for a total of 120 h. This protocol was repeated with a fresh medium change every 24 h for 5 days. On day 6, the cells were trypsinized, counted, and replated in control medium using appropriate dilutions, and clonogenic survival was evaluated.

T47D-HTR cells = assay: Ki-67 staining in T47D-HTR cells; format: cell-based, human; conditions: 5 µM GC4419 for 5 days
Source text: With respect to FIG. 16a, the data from FIG. 7i, where MCF7-HTR cells were stained for Ki-67, as well as DAPI, were counted with ImageJ and quantified for average Ki-67 intensity as shown in the bar graph. With respect to FIGS. 16b and 16c, T47D and T47D-HTR cells were stained for Ki-67 as well as DAPI, and particles in the nucleus were counted with ImageJ and quantified for average Ki-67 intensity as shown in the bar graph. In FIGS. 16d and 16e, MCF7-HTR cells, and in FIGS. 16f and 16g, T47D-HTR cells, were treated with 5 µM GC4419 and/or 1 µM 4-hydroxy-Tam for 5 days, and then stained for Ki-67 as well as DAPI. Quantifications of average Ki-67 intensity are shown in the bar graphs. All experiments were done in triplicate. Error bars represent ± 1 SEM. ***p < 0.001. Representative images are shown.
Cells seeded on glass coverslips were fixed in 4% paraformaldehyde and then blocked with 1% BSA and 10% normal goat serum in 1x PBS. Cells were incubated with anti-Ki-67 (c-bioscience) antibody in 1x PBS followed by incubation with goat anti-rabbit IgG conjugated with Alexa Fluor 647 (Invitrogen) in 1x PBS with 5% goat serum. Cells were washed in 1x PBS, mounted, and imaged with a fluorescence microscope. Fluorescence images were captured using a laser scanning confocal microscope (Nikon A1 R). The paired images in all the figures were collected at the same gain and offset settings. […]

MCF7-Cispl-R cells [2] = assay: Cisplatin resistance phenotype of MCF7-Cispl-R cells (clonogenic cell survival); format: cell-based, human; conditions: treated with GC4419
Experimental: (§3) FIGS. 27a-27c are an image and graphs showing that MnSOD—AcK68/ROS/HIF2α dysregulation directs PanR (multi-therapy resistance to cancer therapeutics). […] In FIG. 27b, ROS was measured in MCF7-Cispl-R cells, compared with MCF7 cells, using an Amplex Red assay. In FIG. 27c, MCF7 and MCF7-MnSOD^K68Q cells were measured by clonogenic cell survival assays, without and with cisplatin exposure, and infected with scrambled (C) or HIF2α shRNA. All experiments were done in triplicate. Error bars are ± 1 SEM. * p < 0.05.
To evaluate clonogenic cell survival by testing cell growth at low density, 500 exponentially growing cells were plated in triplicate in 6-well plates using serial dilution, and the growth of the cells was examined throughout 14 days in regular growth medium. Cells were fixed with 70% ethanol for 5 minutes and then stained with 0.5% crystal violet (in 25% methanol) for 20 minutes. Photos of stained plates were taken, and colonies of more than 50 cells were counted and used to calculate clonogenic survival.

[3] = tested on: Sirt3^-/--MT-SIRT3^WT allografts; assay: Sirt3-/--MT-SIRT3^WT mammary allograft tumor growth (bioluminescence); format: in vivo; conditions: GC4419 by IP every other day for five weeks; compared to control mice
Experimental: as §1, §2

MCF7-MnSOD^K68Q cells = assay: Ki-67 staining in MCF7-MnSOD^K68Q cells; format: cell-based, human; conditions: 5 µM GC4419 for 5 days
Experimental: MCF7-MnSOD^K68Q cells (in FIGS. 17a and 17b) and T47D-MnSOD^K68Q cells (in FIGS. 17c and 17d) were treated with 5 µM GC4419 and/or 1 µM 4-hydroxy-Tam for 5 days, and then stained for Ki-67 as well as DAPI. Quantifications of average Ki-67 intensity are shown in the bar graphs. In FIG. 17e, MCF7 and MCF7-HTR cells were implanted into both hind limbs of nude mice and tumor volumes were measured every 3 days for 6 weeks and the number of tumors that successfully implanted versus the total number of mice infected with MCF7 and MCF7-HTR as well as the average tumor weight and tumor size are shown. Representative images are shown. All experiments were done in triplicate. Error bars represent ± 1 SEM. ***p < 0.001.
Cells seeded on glass coverslips were fixed in 4% paraformaldehyde and then blocked with 1% BSA and 10% normal goat serum in 1x PBS. Cells were incubated with anti-Ki-67 (c-bioscience) antibody in 1x PBS followed by incubation with goat anti-rabbit IgG conjugated with Alexa Fluor 647 (Invitrogen) in 1x PBS with 5% goat serum. Cells were washed in 1x PBS, mounted, and imaged with a fluorescence microscope. Fluorescence images were captured using a laser scanning confocal microscope (Nikon A1 R). The paired images in all the figures were collected at the same gain and offset settings. Post-collection processing was applied uniformly to all paired images.

MCF7-Cispl-R cells [4] = assay: Cell ROS levels in cisplatin-resistant MCF7 cells; format: cell-based, human; conditions: data not shown
Experimental: as §3

[Cl][Mn][Cl].c1cc2nc(c1)CN[C@H]1CCCC[C@@H]1NCCN[C@H]1CCCC[C@@H]1NC2 [GC4419]
tumor growth [1]: significant decrease in tumor growth | hydroxy-Tam resistance (clonogenic cell survival) (MCF7-HTR cells): became sensitive to hydroxy-Tam | Ki-67 IHC staining (T47D-HTR cells): decreased Ki-67 IHC staining | Cispl-R phenotype (MCF7-Cispl-R cells [2]): converted the Cispl-R cells to a sensitive phenotype | tumor growth [3]: little change in tumor growth | Ki-67 IHC staining (MCF7-MnSOD^K68Q cells): reversed the increase in Ki-67 IHC staining | cell ROS levels (MCF7-Cispl-R cells [4]): decreased cell ROS levels
